Laboratory results: ChEMBL document CHEMBL4152341, “Small Molecules Simultaneously Inhibiting p53-Murine Double Minute 2 (MDM2) Interaction and Histone Deacetylases (HDACs): Discovery of Novel Multitargeting Antitumor Agents” (J Med Chem, 2018)
Calls of active or inactive are those of the source. No cut-off for these calls is given here.

Tests used:
HCT-116 = test: Antiproliferative activity against human HCT116 cells after 72 hrs by CCK8 assay; type: functional, cell-based; settings: HCT-116, 72 h
[1] = target: E3 ubiquitin-protein ligase Mdm2 (Homo sapiens, UniProt Q00987); test: Inhibition of MDM2 (unknown origin) preincubated for 30 mins by fluorescence polarization assay
Sequence of E3 ubiquitin-protein ligase Mdm2 (Q00987 whole entry): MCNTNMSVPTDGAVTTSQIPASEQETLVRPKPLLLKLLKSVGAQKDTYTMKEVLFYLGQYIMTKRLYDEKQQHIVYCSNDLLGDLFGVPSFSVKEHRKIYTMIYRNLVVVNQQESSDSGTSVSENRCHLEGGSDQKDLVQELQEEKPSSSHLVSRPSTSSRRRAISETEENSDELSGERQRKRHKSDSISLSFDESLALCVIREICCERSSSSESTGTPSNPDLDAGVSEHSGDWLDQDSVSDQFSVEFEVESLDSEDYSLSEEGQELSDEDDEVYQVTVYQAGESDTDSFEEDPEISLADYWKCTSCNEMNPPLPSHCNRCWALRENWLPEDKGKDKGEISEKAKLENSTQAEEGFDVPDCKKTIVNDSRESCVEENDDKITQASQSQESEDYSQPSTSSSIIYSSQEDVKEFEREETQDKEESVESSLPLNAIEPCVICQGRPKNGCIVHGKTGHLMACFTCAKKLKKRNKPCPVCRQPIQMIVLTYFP

NCI-H1299 = test: Antiproliferative activity against human NCI-H1299 cells after 72 hrs by CCK8 assay; type: functional, cell-based; settings: NCI-H1299, 72 h
A549 [2] = test: Antiproliferative activity against human A549 cells after 72 hrs by CCK8 assay; type: functional, cell-based; settings: A549, 72 h
MCF7 = test: cells; settings: Homo sapiens, MCF7, 72 h
Description: Antiproliferative activity against human MCF7 cells after 72 hrs by CCK8 assay

Histone deacetylase 1 = Histone deacetylase 1 (Homo sapiens, UniProt Q13547); test: Inhibition of human recombinant full length HDAC1 using fluorogenic substrate 3 after 30 mins by fluorescence assay
Sequence of Histone deacetylase 1 (Q13547 whole entry): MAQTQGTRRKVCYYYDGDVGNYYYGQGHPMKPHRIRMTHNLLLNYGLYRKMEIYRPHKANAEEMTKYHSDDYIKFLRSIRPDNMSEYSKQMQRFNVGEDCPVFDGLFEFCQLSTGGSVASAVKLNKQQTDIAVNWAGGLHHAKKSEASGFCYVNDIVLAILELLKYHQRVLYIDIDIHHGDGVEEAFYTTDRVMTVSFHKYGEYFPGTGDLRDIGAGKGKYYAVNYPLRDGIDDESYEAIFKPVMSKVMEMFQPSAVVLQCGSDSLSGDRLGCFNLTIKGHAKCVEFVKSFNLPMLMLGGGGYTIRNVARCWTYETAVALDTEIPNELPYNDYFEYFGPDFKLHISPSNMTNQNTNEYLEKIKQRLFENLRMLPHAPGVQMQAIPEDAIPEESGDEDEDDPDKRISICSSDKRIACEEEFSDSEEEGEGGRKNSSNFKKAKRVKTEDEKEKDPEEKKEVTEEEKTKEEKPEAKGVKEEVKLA

[3] = target: T1, Tumour suppressor p53/oncoprotein Mdm2 (Homo sapiens) (UniProt P04637+Q00987); test: Inhibition of MDM2/P53 interaction in human A549 cells assessed as increase in MDM2 expression at 5 to 10 uM after 12 hrs by Western blot analysis; type: cell-based
T1 sequence (P04637 whole entry, looked up): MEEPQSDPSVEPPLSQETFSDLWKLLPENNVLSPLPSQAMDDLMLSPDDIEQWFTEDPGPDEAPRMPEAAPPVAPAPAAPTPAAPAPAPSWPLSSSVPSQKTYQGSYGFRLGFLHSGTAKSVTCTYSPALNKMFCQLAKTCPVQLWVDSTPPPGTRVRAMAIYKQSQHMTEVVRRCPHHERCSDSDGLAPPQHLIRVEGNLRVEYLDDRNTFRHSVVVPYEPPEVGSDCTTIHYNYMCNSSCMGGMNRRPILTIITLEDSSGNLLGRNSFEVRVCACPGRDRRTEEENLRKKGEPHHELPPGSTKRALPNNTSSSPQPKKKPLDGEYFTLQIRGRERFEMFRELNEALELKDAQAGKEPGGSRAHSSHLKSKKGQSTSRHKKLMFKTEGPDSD
T1 sequence (Q00987 whole entry, looked up): as the sequence (Q00987 whole entry) above

[4] = target: T1, Tumour suppressor p53/oncoprotein Mdm2 (Homo sapiens); test: Inhibition of MDM2/P53 interaction in human A549 cells assessed as increase in p53 expression at 5 to 10 uM after 12 hrs by Western blot analysis; type: cell-based
A549 [5] = test: cells; settings: Homo sapiens, A549, 48 h, read-out: Activity
A549 [6] = test: cells; settings: Homo sapiens, A549, 48 h, read-out: Activity; remark: listed apart in the source
A549 [7] = test: animal or person; type: functional, Homo sapiens; settings: Mus musculus, A549, po, read-out: TGI
[8] = target: T1, Tumour suppressor p53/oncoprotein Mdm2 (Homo sapiens); test: Inhibition of MDM2/P53 interaction in human A549 cells assessed as increase in p53 expression at 10 uM after 12 hrs by Western blot analysis; type: cell-based

| Structure (SMILES) | IC50 (HCT-116) [µM] | Ki [1] [µM] | IC50 (NCI-H1299) [µM] | IC50 (A549 [2]) [µM] | IC50 (MCF7) [µM] | IC50 (Histone deacetylase 1) [µM] | inhibition [3] | inhibition [4] | viability at 5 µM (A549 [5]) [%] | viability at 1 µM (A549 [6]) [%] | inhibition in vivo at 100 mg/kg (A549 [7]) [%] | Activity [8] |
| --- | --- | --- | --- | --- | --- | --- | --- | --- | --- | --- | --- | --- |
| CCOc1cc(C(C)(C)C)ccc1C1=NC(c2ccc(Cl)cc2)C(c2ccc(Cl)cc2)N1C(=O)N1CCN(c2ncc(C(=O)NO)cn2)CC1 (stereo not drawn) | 0.98 | 1.05 | 5.45 | 1.97 | 3.46 | 0.31 |  |  |  |  |  |  |
| CCOc1cc(C(C)(C)C)ccc1C1=NC(c2ccc(Cl)cc2)C(c2ccc(Cl)cc2)N1C(=O)N1CCC(C(=O)NO)CC1 (stereo not drawn) | 9.3 | 0.057 | 9.87 | 2.99 | 10.1 | 9.72 |  |  |  |  |  |  |
| CCOc1cc(C(C)(C)C)ccc1C1=NC(c2ccc(Cl)cc2)C(c2ccc(Cl)cc2)N1C(=O)NCCCCCCCC(=O)NO (stereo not drawn) | 5.03 | 0.34 | 9.06 | 4.85 | 7.92 | 0.27 |  |  |  |  |  |  |
| CCOc1cc(C(C)(C)C)ccc1C1=NC(c2ccc(Cl)cc2)C(c2ccc(Cl)cc2)N1C(=O)NCCCCC(=O)NO (stereo not drawn) | 10.7 | 0.33 | 16.2 | 9.34 | 12.8 | 2.92 |  |  |  |  |  |  |
| O=C(CCCCCCC(=O)Nc1ccccc1)NO [VORINOSTAT] |  | > 20 | 4.92 |  |  |  |  |  |  |  |  |  |
| CC(=O)Nc1ccc(C(=O)Nc2ccccc2N)cc1 [TACEDINALINE] | 9.83 |  | 6.79 | 10.2 | 13.2 |  |  |  |  |  |  |  |
| CCOc1cc(C(C)(C)C)ccc1C1=N[C@@H](c2ccc(Cl)cc2)[C@@H](c2ccc(Cl)cc2)N1C(=O)N1CCN(CCCCCCC(=O)NO)CC1 | 1.11 | 0.06 |  | 0.99 |  | 0.89 | Active | Active |  |  |  |  |
| CCOc1cc(C(C)(C)C)ccc1C1=NC(c2ccc(Cl)cc2)C(c2ccc(Cl)cc2)N1C(=O)N1CCC(Nc2ncc(C(=O)NO)cn2)CC1 (stereo not drawn) | 3.24 | 0.46 | 7.91 | 3.11 | 2.68 | 1.01 |  |  |  |  |  |  |
| CCOc1cc(C(C)(C)C)ccc1C1=NC(c2ccc(Cl)cc2)C(c2ccc(Cl)cc2)N1C(=O)N1CCN(CCCCC(=O)NO)CC1 (stereo not drawn) | 5.21 | 0.17 | 12.9 | 3.78 | 9.8 | 0.98 |  |  |  |  |  |  |
| CCOc1cc(C(C)(C)C)ccc1C1=NC(c2ccc(Cl)cc2)C(c2ccc(Cl)cc2)N1C(=O)N1CCC(C(=O)Nc2ccc(/C=C/C(=O)NO)cc2)CC1 (stereo not drawn) | 9.64 | 2.65 | 9.36 | 7.59 | 7.22 | 0.97 |  |  |  |  |  |  |
| COc1ccc(C2=N[C@@H](c3ccc(Cl)cc3)[C@@H](c3ccc(Cl)cc3)N2C(=O)N2CCNC(=O)C2)c(OC(C)C)c1 [NUTLIN-3] | 9.07 to 9.97 |  | 19.8 | 9.58 to 11.7 | 8.5 | > 100 |  |  | 83.3 | 89.8 | 44 |  |
| CCOc1cc(C(C)(C)C)ccc1C1=NC(c2ccc(Cl)cc2)C(c2ccc(Cl)cc2)N1C(=O)NCCCCCCC(=O)Nc1ccccc1N (stereo not drawn) | 10.1 | 0.62 | 17.5 | 16 | > 100 | 6.07 |  |  |  |  |  |  |
| CCOc1cc(C(C)(C)C)ccc1C1=NC(c2ccc(Cl)cc2)C(c2ccc(Cl)cc2)N1C(=O)NCc1ccc(C(=O)NO)cc1 (stereo not drawn) | 9.1 | 0.58 | 7.71 | 7.64 | 13.3 | 3.7 |  |  |  |  |  |  |
| CCOc1cc(C(C)(C)C)ccc1C1=NC(c2ccc(Cl)cc2)C(c2ccc(Cl)cc2)N1C(=O)N1CCN(CCCCCCCC(=O)NO)CC1 (stereo not drawn) | 1.71 | 0.29 | 7.76 | 2.01 | 4.83 | 0.41 |  |  |  |  |  |  |
| CCOc1cc(C(C)(C)C)ccc1C1=NC(c2ccc(Cl)cc2)C(c2ccc(Cl)cc2)N1C(=O)NCCCCCCC(=O)NO (stereo not drawn) | 7.09 | 0.32 | 7.65 | 5.97 | 7.23 | 0.89 |  |  |  |  |  |  |
| CCOc1cc(C(C)(C)C)ccc1C1=NC(c2ccc(Cl)cc2)C(c2ccc(Cl)cc2)N1C(=O)NCCCCCC(=O)NO (stereo not drawn) | 7.15 | 0.28 | 10.4 | 5.72 | 10.6 | 1.13 |  |  |  |  |  |  |
| CCOc1cc(C(C)(C)C)ccc1C1=NC(c2ccc(Cl)cc2)C(c2ccc(Cl)cc2)N1C(=O)N1CCN(CCCCCC(=O)NO)CC1 (stereo not drawn) | 4.03 | 0.17 | 9.39 | 2.91 | 7.26 | 0.97 |  |  |  |  |  |  |
| CCOc1cc(C(C)(C)C)ccc1C1=NC(c2ccc(Cl)cc2)C(c2ccc(Cl)cc2)N1C(=O)NCCCCCC(=O)Nc1ccccc1N (stereo not drawn) | 21.8 | 1.43 | 19.1 | 20.3 | > 100 | > 20 |  |  |  |  |  |  |
| CCOc1cc(C(C)(C)C)ccc1C1=NC(c2ccc(Cl)cc2)C(c2ccc(Cl)cc2)N1C(=O)N1CCN(CC(=O)NO)CC1 (stereo not drawn) | 5.88 | 0.07 | 11.5 | 4.32 | 11.7 | 4.2 |  |  |  |  |  |  |
| CCOc1cc(C(C)(C)C)ccc1C1=NC(c2ccc(Cl)cc2)C(c2ccc(Cl)cc2)N1C(=O)NCCCCC(=O)Nc1ccccc1N (stereo not drawn) | 13.9 | 0.96 | 15.6 | 18.4 | 29.1 | > 20 |  |  |  |  |  |  |
| CCOc1cc(C(C)(C)C)ccc1C1=N[C@H](c2ccc(Cl)cc2)[C@H](c2ccc(Cl)cc2)N1C(=O)N1CCN(CCCCCCC(=O)NO)CC1 | 10 | 10.9 |  | 9.02 |  | 0.91 |  |  |  |  |  | Active |
| CCOc1cc(C(C)(C)C)ccc1C1=NC(c2ccc(Cl)cc2)C(c2ccc(Cl)cc2)N1C(=O)NCCCCCCCC(=O)Nc1ccccc1N (stereo not drawn) | 9.91 | 1.02 | 19.6 | 15.2 | 20.3 | 3.59 |  |  |  |  |  |  |
| CCOc1cc(C(C)(C)C)ccc1C1=NC(c2ccc(Cl)cc2)C(c2ccc(Cl)cc2)N1C(=O)N1CCN(Cc2ccc(C(=O)NO)cc2)CC1 (stereo not drawn) | 2.03 | 0.26 | 3 | 2.17 | 3.97 | 3.51 |  |  |  |  |  |  |
